Data as given in EPA's ToxRefDB 2.

Assays:
mouse [1] = conditions: Carcinogenicity; b6c3f1; Oral; Feed; dose end: 101 week; group: systemic; systemic / in life observation / body weight / body weight + systemic / pathology microscopic / liver / hyperplasia + systemic / pathology …
mouse [2] = conditions: Subchronic oral toxicity in rodents, b6c3f1, Feed, dose end: 7 week, group: systemic, systemic / in life observation / body weight / body weight
rat [3] = conditions: Combined chronic toxicity/carcinogenicity, fischer, Oral, Feed, dose end: 103 week, group: systemic
rat [4] = conditions: Subchronic oral toxicity in rodents, fischer, Feed, dose end: 7 week, group: systemic
mouse [5] = conditions: Carcinogenicity; b6c3f1; Oral; Gavage/Intubation; dose end: 103 week; group: systemic; systemic / pathology microscopic / stomach / hyperkeratosis + systemic / pathology microscopic / stomach / hyperplasia + systemic / …
rat [6] = conditions: Carcinogenicity; fischer; Oral; Gavage/Intubation; dose end: 103 week; group: systemic; systemic / pathology microscopic / stomach / hyperkeratosis + systemic / pathology microscopic / stomach / hyperplasia + systemic / …
mouse [7] = conditions: Subchronic oral toxicity in rodents, b6c3f1, Gavage/Intubation, dose end: 13 week, group: systemic, systemic / in life observation / mortality / mortality
rat [8] = conditions: Carcinogenicity; fischer; Oral; Feed; dose end: 78 week; group: systemic; systemic / in life observation / body weight / body weight
mouse [9] = conditions: Carcinogenicity; b6c3f1; Oral; Feed; dose end: 78 week; group: systemic; systemic / in life observation / body weight / body weight
dog [10] = conditions: Subchronic oral toxicity in nonrodent, beagle, Feed, dose end: 90 day, group: systemic, systemic / pathology microscopic / kidney / vacuolization
rat [11] = conditions: Carcinogenicity; wistar; Oral; [Not Specified]; dose end: 24 month; group: systemic; systemic / in life observation / mortality / mortality
rat [12] = conditions: Chronic toxicity, wistar, Oral, Feed, dose end: 108 week, group: systemic
mouse [13] = conditions: Carcinogenicity, b6c3f1, Oral, Feed, dose end: 24 month, group: systemic
dog [14] = conditions: Chronic toxicity; beagle; Oral; [Not Specified]; dose end: 12 month; group: systemic; systemic / in life observation / body weight / body weight + systemic / in life observation / body weight / body weight gain + systemic / …
rat [15] = conditions: Subchronic oral toxicity in rodents, wistar, Feed, dose end: 14 week, group: systemic
rabbit [16] = conditions: Prenatal developmental toxicity study, himalayan, Oral, Gavage/Intubation, dose end: 28 GD
rat [17] = conditions: Multigenerational reproductive toxicity study, wistar, Oral, Feed, dose end: 2 generation
mouse [18] = conditions: Carcinogenicity; b6c3f1; Oral; Feed; dose end: 104 week; group: systemic; systemic / in life observation / body weight / body weight + systemic / in life observation / body weight / body weight gain + systemic / in…
dog [19] = conditions: Chronic toxicity; beagle; Oral; Feed; dose end: 52 week; group: systemic; systemic / clinical chemistry / aminopyrine-n-demethylase / aminopyrine-n-demethylase + systemic / in life observation / body weight / body …
rat [20] = conditions: Chronic toxicity; sprague dawley; Oral; Feed; dose end: 104 week; group: systemic; systemic / pathology microscopic / mammary gland / mixed tumor nos + systemic / in life observation / body weight / body weight gain + …
mouse [21] = conditions: Multigenerational reproductive toxicity study, cd1, Oral, Feed, dose end: 2 generation
mouse [22] = conditions: Prenatal developmental toxicity study, cd1, Oral, Gavage/Intubation, dose end: 15 GD
rat [23] = conditions: Prenatal developmental toxicity study; sprague dawley; Oral; Gavage/Intubation; dose end: 17 GD; group: maternal; systemic / in life observation / body weight / body weight gain
rabbit [24] = conditions: Prenatal developmental toxicity study, new zealand white, Oral, Gavage/Intubation, dose end: 20 GD
mouse [25] = conditions: Prenatal developmental toxicity study; cd1; Oral; Gavage/Intubation; dose end: 14 GD; group: maternal; systemic / in life observation / body weight / body weight gain + systemic / in life observation / mortality / mortality
[26] = systemic / in life observation / body weight / body weight
[27] = systemic / in life observation / body weight / body weight + systemic / pathology microscopic / lung / mixed tumor nos + systemic / …
[28] = systemic / in life observation / body weight / body weight + systemic / clinical chemistry / calcium / calcium + systemic / clinical …
[29] = systemic / in life observation / body weight / body weight + systemic / in life observation / body weight / body weight gain + systemic / …
[30] = systemic / organ weight / spleen / absolute + systemic / organ weight / spleen / relative to body weight + systemic / clinical chemistry / …
[31] = group: developmental, developmental / developmental malformation / bone / incomplete ossification + systemic / in life observation / body weight / fetal weight
[32] = group: developmental, developmental / developmental malformation / bone / incomplete ossification + systemic / in life observation / body weight / fetal weight + …
[33] = group: maternal, systemic / in life observation / clinical signs / alopecia + systemic / in life observation / clinical signs / cold ears + systemic / in …
[34] = group: offspring, systemic / in life observation / body weight / offspring (pup) weight + systemic / pathology gross / liver / irregular surface + systemic / …
[35] = group: offspring, systemic / in life observation / body weight / offspring (pup) weight + developmental / offspring survival late / lactation index / …
[36] = group: parental, systemic / in life observation / body weight / body weight + systemic / in life observation / body weight / body weight gain + systemic / in…
[37] = group: reproductive, reproductive / reproductive performance / fertility / fertility
[38] = group: reproductive, reproductive / reproductive performance / fertility / fertility + reproductive / offspring survival early / litter size / litter size
[39] = group: developmental, developmental / developmental malformation / bone / exencephaly + developmental / developmental malformation / trunk / omphalocele + …
[40] = group: maternal, reproductive / reproductive performance / resorptions / resorptions + systemic / in life observation / body weight / dam weight
[41] = group: maternal, reproductive / reproductive performance / resorptions / resorptions + systemic / in life observation / body weight / dam weight + …
[42] = group: developmental, systemic / in life observation / body weight / fetal weight
[43] = group: maternal, reproductive / reproductive performance / aborted / aborted + systemic / in life observation / body weight / body weight gain

Cc1ccc(N)cc1N [2,4-Diaminotoluene]
LEL (mouse [1]): 15 mg/kg/day
LOAEL (mouse [1]): 15 mg/kg/day
NEL (mouse [1]): < 15 mg/kg/day
NOAEL (mouse [1]): < 15 mg/kg/day
LEL (mouse [2]): 30 mg/kg/day
LOAEL (mouse [2]): 45 mg/kg/day
NEL (mouse [2]): 15 mg/kg/day
NOAEL (mouse [2]): 30 mg/kg/day
LOAEL (rat [3]; [26]): 3.95 mg/kg/day
NOAEL (rat [3]; [26]): < 3.95 mg/kg/day
LEL (rat [3]; [27]): 3.95 mg/kg/day
NEL (rat [3]; [27]): < 3.95 mg/kg/day
LEL (rat [4]; [26]): 12.5 mg/kg/day
LOAEL (rat [4]; [26]): 25 mg/kg/day
NEL (rat [4]; [26]): < 12.5 mg/kg/day
NOAEL (rat [4]; systemic / in life observation / body weight / body weight + systemic / in life observation / mortality / mortality + systemic / pathology …): 12.5 mg/kg/day

C=CC(=O)OCC [Ethyl acrylate]
LEL (mouse [5]): 100 mg/kg/day
LOAEL (mouse [5]): 100 mg/kg/day
NEL (mouse [5]): < 100 mg/kg/day
NOAEL (mouse [5]): < 100 mg/kg/day
LEL (rat [6]): 100 mg/kg/day
LOAEL (rat [6]): 100 mg/kg/day
NEL (rat [6]): < 100 mg/kg/day
NOAEL (rat [6]): < 100 mg/kg/day
LEL (mouse [7]): 25 mg/kg/day
LOAEL (mouse [7]): > 25 mg/kg/day
NEL (mouse [7]): 12 mg/kg/day
NOAEL (mouse [7]): ≥ 25 mg/kg/day

Cc1ccc([N+](=O)[O-])cc1N [2-Methyl-5-nitroaniline]
LEL (rat [8]): 2.5 mg/kg/day
LOAEL (rat [8]): 2.5 mg/kg/day
NEL (rat [8]): < 2.5 mg/kg/day
NOAEL (rat [8]): < 2.5 mg/kg/day
LEL (mouse [9]): 180 mg/kg/day
LOAEL (mouse [9]): 180 mg/kg/day
NEL (mouse [9]): < 180 mg/kg/day
NOAEL (mouse [9]): < 180 mg/kg/day

Nc1cnn(-c2ccccc2)c(=O)c1Cl [Chloridazon]
LEL (dog [10]): 133 mg/kg/day
LOAEL (dog [10]): 133 mg/kg/day
NEL (dog [10]): < 133 mg/kg/day
NOAEL (dog [10]): < 133 mg/kg/day
LEL (rat [11]): 150 mg/kg/day
LOAEL (rat [11]): > 200 mg/kg/day
NEL (rat [11]): < 150 mg/kg/day
NOAEL (rat [11]): ≥ 200 mg/kg/day
LOAEL (rat [12]; [26]): 60 mg/kg/day
LEL (rat [12]; systemic / in life observation / body weight / body weight + systemic / clinical chemistry / calcium / calcium): 60 mg/kg/day
NEL (rat [12]; [28]): 18 mg/kg/day
NOAEL (rat [12]; [28]): 18 mg/kg/day
LOAEL (mouse [13]; systemic / in life observation / body weight / body weight + systemic / in life observation / body weight / body weight gain): 762 mg/kg/day
NEL (mouse [13]; [29]): 28 mg/kg/day
NOAEL (mouse [13]; [29]): 146 mg/kg/day
LEL (mouse [13]; systemic / pathology microscopic / lung / adenoma): 146 mg/kg/day
LEL (dog [14]): 186 mg/kg/day
LOAEL (dog [14]): 186 mg/kg/day
NEL (dog [14]): < 186 mg/kg/day
NOAEL (dog [14]): < 186 mg/kg/day

COc1nn(C(=O)[N-]S(=O)(=O)c2ccccc2OC(F)(F)F)c(=O)n1C.[Na+] [Flucarbazone-sodium]
LEL (rat [15]; systemic / organ weight / spleen / absolute + systemic / organ weight / spleen / relative to body weight): 73.5 mg/kg/day
NEL (rat [15]; [30]): 17.6 mg/kg/day
NOAEL (rat [15]; [30]): 73.5 mg/kg/day
LOAEL (rat [15]; systemic / organ weight / spleen / absolute + systemic / organ weight / spleen / relative to body weight + systemic / pathology microscopic…): 287 mg/kg/day
LEL (rabbit [16]; [31]): 500 mg/kg/day
LOAEL (rabbit [16]; [31]): 500 mg/kg/day
NEL (rabbit [16]; [32]): 300 mg/kg/day
NOAEL (rabbit [16]; [32]): 300 mg/kg/day
LEL (rabbit [16]; [33]): 300 mg/kg/day
LOAEL (rabbit [16]; [33]): 300 mg/kg/day
NEL (rabbit [16]; [33]): 100 mg/kg/day
NOAEL (rabbit [16]; [33]): 100 mg/kg/day
LEL (rat [17]; [34]): 1060 mg/kg/day
LOAEL (rat [17]; [34]): 1060 mg/kg/day
NEL (rat [17]; [34]): 346 mg/kg/day
NOAEL (rat [17]; [34]): 346 mg/kg/day
LOAEL (rat [17]; group: parental, systemic / organ weight / uterus / absolute): 991 mg/kg/day
NOAEL (rat [17]; group: parental, systemic / organ weight / uterus / absolute + systemic / in life observation / body weight / body weight + systemic / in life observation / …): 340 mg/kg/day
LEL (rat [17]; group: parental, systemic / pathology gross / intestine large / dilatation): 453 mg/kg/day
NEL (rat [17]; group: parental, systemic / pathology gross / intestine large / dilatation + systemic / in life observation / clinical signs / defecation + systemic / in …): 5.5 mg/kg/day
LEL (mouse [18]): 2070 mg/kg/day
LOAEL (mouse [18]): 2070 mg/kg/day
NEL (mouse [18]): 275 mg/kg/day
NOAEL (mouse [18]): 275 mg/kg/day
LEL (dog [19]): 183 mg/kg/day
LOAEL (dog [19]): 183 mg/kg/day
NEL (dog [19]): 35.9 mg/kg/day
NOAEL (dog [19]): 35.9 mg/kg/day

C#C[C@]1(OC(C)=O)CC[C@H]2[C@@H]3CCC4=CC(=O)CC[C@@H]4[C@H]3CC[C@@]21C [Norethindrone acetate]
LEL (rat [20]): 0.289 mg/kg/day
LOAEL (rat [20]): > 3.3 mg/kg/day
NEL (rat [20]): < 0.289 mg/kg/day
NOAEL (rat [20]): ≥ 3.3 mg/kg/day

O=[As](O)(O)O [Arsenic acid]
LOAEL (mouse [21]; group: offspring, systemic / in life observation / body weight / offspring (pup) weight): 25 mg/kg/day
LEL (mouse [21]; [35]): 25 mg/kg/day
NEL (mouse [21]; [35]): 5 mg/kg/day
NOAEL (mouse [21]; [35]): 5 mg/kg/day
LEL (mouse [21]; [36]): 5 mg/kg/day
LOAEL (mouse [21]; [36]): 5 mg/kg/day
NEL (mouse [21]; [36]): 1 mg/kg/day
NOAEL (mouse [21]; [36]): 1 mg/kg/day
NEL (mouse [21]; [37]): 5 mg/kg/day
NOAEL (mouse [21]; [37]): 5 mg/kg/day
LEL (mouse [21]; [38]): 25 mg/kg/day
LOAEL (mouse [21]; [38]): 25 mg/kg/day
LEL (mouse [22]; [39]): 64 mg/kg/day
LOAEL (mouse [22]; [39]): 64 mg/kg/day
NEL (mouse [22]; [39]): 32 mg/kg/day
NOAEL (mouse [22]; [39]): 32 mg/kg/day
LEL (mouse [22]; [40]): 32 mg/kg/day
LOAEL (mouse [22]; [40]): 32 mg/kg/day
NEL (mouse [22]; [41]): 10 mg/kg/day
NOAEL (mouse [22]; [41]): 10 mg/kg/day

CCCCc1ncc(/C=C(\Cc2cccs2)C(=O)O)n1Cc1ccc(C(=O)O)cc1 [Eprosartan]
LEL (rat [23]): 1000 mg/kg/day
LOAEL (rat [23]): 1000 mg/kg/day
NEL (rat [23]): 100 mg/kg/day
NOAEL (rat [23]): 100 mg/kg/day

O=S(=O)(O)C(F)(F)C(F)(F)C(F)(F)C(F)(F)C(F)(F)C(F)(F)C(F)(F)C(F)(F)F [PFOS]
LEL (rabbit [24]; [42]): 3.75 mg/kg/day
LOAEL (rabbit [24]; [42]): > 3.75 mg/kg/day
NEL (rabbit [24]; [42]): 1 mg/kg/day
NOAEL (rabbit [24]; [42]): ≥ 3.75 mg/kg/day
LOAEL (rabbit [24]; [43]): > 2.5 mg/kg/day
NEL (rabbit [24]; [43]): 0.1 mg/kg/day
NOAEL (rabbit [24]; [43]): ≥ 2.5 mg/kg/day
LEL (rabbit [24]; group: maternal, systemic / in life observation / body weight / body weight gain): 1 mg/kg/day

O=[N+]([O-])c1ccc(O)cc1 [4-Nitrophenol]
LEL (mouse [25]): 400 mg/kg/day
LOAEL (mouse [25]): > 400 mg/kg/day
NEL (mouse [25]): < 400 mg/kg/day
NOAEL (mouse [25]): ≥ 400 mg/kg/day
